In test [1] the target is NMDA receptor (NMDAR) currents (Rattus norvegicus, UniProt P35439+Q00959+Q00960). The test can be described thus: Whole-cell patch-clamp recording of NMDA-activated currents in cortical neurons of primary culture. Type of test: cell-based. The conditions noted are these: for change of fraction of current blocked in the presence of SEA0400: 50 nM SEA0400, 10 µM KB-R7943, 10 µM ATL, 1 µM DES; for increase of IC50 for NMDAR inhibition in the presence of SEA0400: 50 nM SEA0400 versus control. For orientation: Patch clamp records ionic current or voltage across a cell membrane.

The test system of test [2] is NMDAR currents. Also noted: method as in Sibarov et al., 2015. The conditions noted are these: 10 µM KB-R7943; ref Sibarov et al., 2015; cited from earlier work.
Test [3] has as its system NMDAR channels. The arrangement: method as in MacDonald et al., 1991. The conditions noted are these: ref MacDonald et al., 1991; cited from earlier work.
For test [4], the system named is NCX. The arrangement: method as in Matsuda et al., 2001. The conditions noted are these: ref Matsuda et al., 2001; read-out: IC50 for SEA0400 inhibition of NCX in neurons; cited from earlier work.

Data on six compounds can be found in PMC11327140, “Selective inhibitor of sodium-calcium exchanger, SEA0400, affects NMDA receptor currents and abolishes their calcium-dependent block by tricyclic antidepressants” (Frontiers in Pharmacology, 2024).

Where “and” joins values, the source holds several entries; their conditions need not be identical. Equal values may be shown once. Entries after “also recorded” stand apart in the source; their conditions may differ.

Sequence of NMDA receptor (NMDAR) currents (Q00960 27-1482 limits assumed, other chains not shown): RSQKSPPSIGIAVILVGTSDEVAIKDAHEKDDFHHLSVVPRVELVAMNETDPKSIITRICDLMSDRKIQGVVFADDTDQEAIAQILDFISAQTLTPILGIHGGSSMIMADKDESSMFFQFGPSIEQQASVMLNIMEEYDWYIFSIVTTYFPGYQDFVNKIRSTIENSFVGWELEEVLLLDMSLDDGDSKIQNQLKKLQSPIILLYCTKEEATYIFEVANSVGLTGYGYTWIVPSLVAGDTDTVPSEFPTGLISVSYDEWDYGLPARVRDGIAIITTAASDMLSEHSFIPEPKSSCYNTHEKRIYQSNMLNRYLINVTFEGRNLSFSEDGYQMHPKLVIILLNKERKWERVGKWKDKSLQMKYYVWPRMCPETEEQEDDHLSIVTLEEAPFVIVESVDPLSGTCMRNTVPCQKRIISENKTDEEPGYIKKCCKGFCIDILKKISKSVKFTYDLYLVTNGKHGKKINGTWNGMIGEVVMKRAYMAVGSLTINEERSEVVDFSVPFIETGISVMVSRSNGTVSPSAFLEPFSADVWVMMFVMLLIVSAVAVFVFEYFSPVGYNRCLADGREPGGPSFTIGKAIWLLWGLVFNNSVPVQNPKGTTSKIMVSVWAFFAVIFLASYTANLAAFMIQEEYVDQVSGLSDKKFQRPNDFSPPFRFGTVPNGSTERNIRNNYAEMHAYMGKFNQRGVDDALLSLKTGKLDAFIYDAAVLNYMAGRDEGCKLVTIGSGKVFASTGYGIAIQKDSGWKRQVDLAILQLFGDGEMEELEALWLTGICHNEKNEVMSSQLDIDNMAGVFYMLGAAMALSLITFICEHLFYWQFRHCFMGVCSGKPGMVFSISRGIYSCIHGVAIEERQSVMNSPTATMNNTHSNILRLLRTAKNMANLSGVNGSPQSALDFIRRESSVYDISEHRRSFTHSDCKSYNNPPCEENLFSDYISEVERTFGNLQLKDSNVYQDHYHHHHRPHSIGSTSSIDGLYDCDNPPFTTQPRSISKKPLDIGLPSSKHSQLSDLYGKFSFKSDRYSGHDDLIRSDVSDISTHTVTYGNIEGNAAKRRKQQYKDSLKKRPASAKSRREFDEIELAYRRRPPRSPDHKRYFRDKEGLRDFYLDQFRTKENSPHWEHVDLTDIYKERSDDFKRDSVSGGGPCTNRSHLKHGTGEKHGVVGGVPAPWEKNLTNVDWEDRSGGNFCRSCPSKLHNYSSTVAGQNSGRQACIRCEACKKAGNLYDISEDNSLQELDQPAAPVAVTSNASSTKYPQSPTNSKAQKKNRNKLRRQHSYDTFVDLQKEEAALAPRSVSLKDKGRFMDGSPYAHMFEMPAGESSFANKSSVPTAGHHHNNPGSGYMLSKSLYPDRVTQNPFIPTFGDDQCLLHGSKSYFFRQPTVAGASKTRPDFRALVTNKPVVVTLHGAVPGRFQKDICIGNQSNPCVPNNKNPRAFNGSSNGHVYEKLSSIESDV
Sequence of NMDA receptor (NMDAR) currents (Q00959 23-1464 limits assumed, other chains not shown): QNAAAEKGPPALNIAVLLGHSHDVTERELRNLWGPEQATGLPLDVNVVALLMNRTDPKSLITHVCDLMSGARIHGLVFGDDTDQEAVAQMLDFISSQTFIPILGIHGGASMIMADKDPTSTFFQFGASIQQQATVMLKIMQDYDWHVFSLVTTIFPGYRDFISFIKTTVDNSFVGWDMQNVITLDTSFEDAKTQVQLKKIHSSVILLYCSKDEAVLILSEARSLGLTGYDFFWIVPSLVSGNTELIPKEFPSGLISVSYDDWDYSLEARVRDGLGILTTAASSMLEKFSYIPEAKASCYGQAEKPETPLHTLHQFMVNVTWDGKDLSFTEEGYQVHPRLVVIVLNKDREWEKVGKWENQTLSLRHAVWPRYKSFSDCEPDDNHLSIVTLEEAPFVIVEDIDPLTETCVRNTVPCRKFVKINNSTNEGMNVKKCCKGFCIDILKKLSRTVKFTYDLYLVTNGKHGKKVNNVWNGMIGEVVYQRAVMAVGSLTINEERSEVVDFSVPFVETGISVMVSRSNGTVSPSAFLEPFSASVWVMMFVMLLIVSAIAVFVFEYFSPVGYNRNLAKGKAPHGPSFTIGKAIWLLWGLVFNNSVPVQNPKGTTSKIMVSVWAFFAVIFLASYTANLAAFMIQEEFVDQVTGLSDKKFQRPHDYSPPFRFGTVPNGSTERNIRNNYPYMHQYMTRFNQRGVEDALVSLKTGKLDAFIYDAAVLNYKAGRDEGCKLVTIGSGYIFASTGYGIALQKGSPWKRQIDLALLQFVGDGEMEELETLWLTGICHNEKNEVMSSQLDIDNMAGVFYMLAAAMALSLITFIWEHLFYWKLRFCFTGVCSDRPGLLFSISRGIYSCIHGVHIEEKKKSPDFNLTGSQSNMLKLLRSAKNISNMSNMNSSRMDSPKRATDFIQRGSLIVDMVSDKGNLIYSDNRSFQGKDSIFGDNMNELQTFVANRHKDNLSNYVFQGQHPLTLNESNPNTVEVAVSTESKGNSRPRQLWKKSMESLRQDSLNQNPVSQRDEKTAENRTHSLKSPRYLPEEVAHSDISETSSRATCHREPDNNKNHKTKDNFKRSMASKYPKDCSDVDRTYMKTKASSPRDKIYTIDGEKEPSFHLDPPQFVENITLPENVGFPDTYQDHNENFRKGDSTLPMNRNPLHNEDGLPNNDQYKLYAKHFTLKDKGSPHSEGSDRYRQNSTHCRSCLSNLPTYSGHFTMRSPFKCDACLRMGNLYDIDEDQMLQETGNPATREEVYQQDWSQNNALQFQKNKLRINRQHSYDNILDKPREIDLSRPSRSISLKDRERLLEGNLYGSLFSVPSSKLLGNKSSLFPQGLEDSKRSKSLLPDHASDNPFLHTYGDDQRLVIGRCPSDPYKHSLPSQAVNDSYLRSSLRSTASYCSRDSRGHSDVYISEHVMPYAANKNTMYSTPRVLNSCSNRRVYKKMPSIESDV

With `CN(C)CCC=C1c2ccccc2CCc2ccccc21` [ATL, amitriptyline], the “change of fraction of current blocked in the presence of SEA0400” value (shortened to “change of fraction of current blocked”) in test [1] (1 mM Ca2+, -70 mV) is recorded as “decreased”. The results for the “increase of IC50 for NMDAR inhibition in the presence of SEA0400” value in test [1] and in test [1] (listed as amitriptyline) were 23 fold and “about 20 fold”, respectively.

As for `CNCCCN1c2ccccc2CCc2ccccc21` [DES, desipramine], the “change of fraction of current blocked” value in test [1] (1 mM Ca2+, -70 mV) is reported as “decreased”. Besides, the “increase of IC50 for NMDAR inhibition in the presence of SEA0400” value was around 16 fold in test [1] and “about 20 fold” in test [1] (listed as desipramine).

For the compound `N=C(N)SCCc1ccc(OCc2ccc([N+](=O)[O-])cc2)cc1` [KB-R7943], the “change of fraction of current blocked” value in test [1] (1 mM Ca2+, -70 mV) is on record as “increased”. Also, in test [2], the “decrease of NMDAR currents” value is given as “about 60%”.

`C[C@]12N[C@H](Cc3ccccc31)c1ccccc12` [MK-801]: the “rate constant of dissociation from NMDAR channels” value in test [3] was around 0.003 s⁻¹.

For `CCOc1ccc(Oc2ccc(OCc3cc(F)ccc3F)cc2)c(N)c1` [SEA0400], the “decrease of decay time constant versus control” value in test [1] (50 nM SEA0400, 1 mM Ca2+) was 2 fold. For the same compound, in test [1] (50 nM SEA0400, 1 mM external Ca2+, neurons loaded with BAPTA), the “effect on NMDAR currents in BAPTA-loaded neurons” value is on record as “abolished the effect; also recorded: did not cause NMDAR inhibition”. Besides, the “voltage dependence of decrease of steady-state amplitude” value in test [1] (50 nM SEA0400, -70 mV versus +30 mV, 1 mM Ca2+) was “did not depend on membrane voltage”. In addition, the “effect on steady-state amplitude of NMDA-activated currents in Ca2+-free solution” value in test [1] (50 nM SEA0400, Ca2+ omitted from external solution, -70 mV) was “abolished the effect; also recorded: did not cause any decrease”. Also, the concentration for half-maximal inhibition (IC50) was 27 nM and ~27 nM in test [1] (2 mM Ca2+, -70 mV, 100 µM NMDA + 30 µM Gly, steady state, read-out: IC50 for SEA0400 inhibition of NMDA-activated currents); 33 nM in test [4]. Moreover, the “decrease of steady-state amplitude of NMDAR currents (upper limit of effect)” value in test [1] (SEA0400 itself, extracellular Ca2+ present) is reported as at most 30%. Moreover, the “decay time constant of NMDAR current from peak to steady state” value in test [1] (in the presence of 50 nM SEA0400, 1 mM Ca2+, -70 mV) is listed as 2.0 ± 0.2 s.

Turning to `c1ccc(C2(N3CCCCC3)CCCCC2)cc1` [phencyclidine], the “rate constant of dissociation from NMDAR channels” value in test [3] is “about 0.03 s^-1”.

A word on the IC50: it is the concentration that inhibits the measured activity by half.
